Data from PMC12311865, “In Vitro Evaluation of the Potential Interactions of Zearalenone-14-sulfate and Zearalenone-14-glucuronide with Human Cytochrome P450 Enzymes, Organic Anion Transporting Polypeptides, and ATP-Binding Cassette Multidrug Transporters” (ACS Omega, 2025).

Experiments:
MDR1 = molecular target: T1, MDR1 (Homo sapiens, UniProt P08183); experiment: MDR1-mediated NMQ vesicular transport (Sf9 membrane vesicles); assay type: biochemical; details: 0–50 μM; NMQ 5 μM
T1 construct: made in house; host or cells: Sf9 insect cells (baculovirus)
T1 sequence (P08183 whole entry): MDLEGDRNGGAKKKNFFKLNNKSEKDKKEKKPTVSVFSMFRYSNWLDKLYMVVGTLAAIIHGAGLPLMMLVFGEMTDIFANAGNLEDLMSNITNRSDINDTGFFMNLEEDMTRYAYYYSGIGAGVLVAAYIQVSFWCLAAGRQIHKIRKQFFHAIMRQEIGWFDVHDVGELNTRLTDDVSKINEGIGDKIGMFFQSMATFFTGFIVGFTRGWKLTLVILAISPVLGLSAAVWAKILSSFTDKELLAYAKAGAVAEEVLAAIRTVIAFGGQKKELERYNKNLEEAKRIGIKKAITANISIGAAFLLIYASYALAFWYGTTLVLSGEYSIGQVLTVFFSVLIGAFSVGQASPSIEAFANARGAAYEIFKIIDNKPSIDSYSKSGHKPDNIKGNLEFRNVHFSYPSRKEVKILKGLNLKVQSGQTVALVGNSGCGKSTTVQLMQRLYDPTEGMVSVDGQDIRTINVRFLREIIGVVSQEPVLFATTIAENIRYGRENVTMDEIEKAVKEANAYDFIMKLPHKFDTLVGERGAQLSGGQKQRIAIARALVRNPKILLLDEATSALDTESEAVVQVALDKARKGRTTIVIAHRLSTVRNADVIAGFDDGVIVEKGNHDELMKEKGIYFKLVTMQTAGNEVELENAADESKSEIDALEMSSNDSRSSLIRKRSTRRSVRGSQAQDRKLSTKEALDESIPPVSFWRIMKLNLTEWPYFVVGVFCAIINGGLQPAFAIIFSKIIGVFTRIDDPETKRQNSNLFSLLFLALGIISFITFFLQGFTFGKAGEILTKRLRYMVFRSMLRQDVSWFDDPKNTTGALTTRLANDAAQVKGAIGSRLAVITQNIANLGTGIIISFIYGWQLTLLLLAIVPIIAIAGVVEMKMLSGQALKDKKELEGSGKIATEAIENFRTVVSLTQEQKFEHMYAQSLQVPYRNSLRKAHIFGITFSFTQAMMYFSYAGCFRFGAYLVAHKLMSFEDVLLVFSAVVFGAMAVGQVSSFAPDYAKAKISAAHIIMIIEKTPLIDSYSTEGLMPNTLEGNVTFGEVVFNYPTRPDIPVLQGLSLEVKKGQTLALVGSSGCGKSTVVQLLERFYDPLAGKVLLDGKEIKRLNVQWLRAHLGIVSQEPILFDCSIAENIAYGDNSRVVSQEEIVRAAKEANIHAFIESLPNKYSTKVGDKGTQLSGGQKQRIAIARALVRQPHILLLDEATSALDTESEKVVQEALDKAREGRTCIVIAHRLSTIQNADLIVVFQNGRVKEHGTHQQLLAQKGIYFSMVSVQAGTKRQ
Method: Experiments were performed in insect membrane vesicles, as described previously. Briefly, human MDR1, BCRP, and MRP2 were expressed in Sf9 insect cells by baculoviruses. On the third day of infection, cells were collected and membrane vesicles were obtained by mechanical disruption and differential centrifugation. To get full activity for BCRP, the cholesterol levels of the vesicles were adjusted to the level of mammalian membranes. Vesicles were stored at −80 °C, and the total protein content of the preparations was measured by the Lowry method (used as a reference for the quantity). […] A 100 μL volume of fluorescence stabilizer was added to the samples (DMSO for LY, 0.1 M H2SO4 for NMQ, and 0.1 M NaOH for CDCF). Fluorescence of samples was measured by plate readers (Victor X3 and Enspire PerkinElmer; Waltham, MA) at appropriate wavelengths (filters in the Victor X3 reader were 405/535 nm for LY and 492/635 nm for CDCF; while in the Enspire reader, NMQ was measured at 360/430 nm excitation/emission wavelengths). ABC-related transport was calculated by subtracting passive uptake measured without Mg-ATP from values measured in the presence of Mg-ATP.

CYP3A4 = molecular target: T2, CYP3A4 (Homo sapiens, UniProt P08684); parameters: method as in our previous study; details: ref our previous study; cited from earlier work
T2 construct: purchased Merck
T2 sequence (P08684 whole entry): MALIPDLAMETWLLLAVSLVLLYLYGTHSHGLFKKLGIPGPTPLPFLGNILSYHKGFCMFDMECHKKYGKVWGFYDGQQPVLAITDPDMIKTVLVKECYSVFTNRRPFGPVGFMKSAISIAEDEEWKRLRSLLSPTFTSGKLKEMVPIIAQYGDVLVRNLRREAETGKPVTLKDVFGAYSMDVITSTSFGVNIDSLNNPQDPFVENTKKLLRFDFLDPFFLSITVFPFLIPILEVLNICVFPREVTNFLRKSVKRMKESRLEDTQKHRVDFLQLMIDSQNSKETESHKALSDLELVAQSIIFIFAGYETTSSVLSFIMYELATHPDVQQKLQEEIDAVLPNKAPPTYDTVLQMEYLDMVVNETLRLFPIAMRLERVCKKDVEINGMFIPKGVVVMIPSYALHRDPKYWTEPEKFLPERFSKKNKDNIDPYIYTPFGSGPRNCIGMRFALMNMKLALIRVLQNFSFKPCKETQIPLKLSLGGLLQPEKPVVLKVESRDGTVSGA

OATP1A2 = molecular target: T3, OATP1A2 (Homo sapiens, UniProt P46721); parameters: method as in earlier report; details: same experimental model; ref earlier report; cited from earlier work
T3 construct: expressed in transfected cells; host or cells: A431
T3 sequence (P46721 1-670): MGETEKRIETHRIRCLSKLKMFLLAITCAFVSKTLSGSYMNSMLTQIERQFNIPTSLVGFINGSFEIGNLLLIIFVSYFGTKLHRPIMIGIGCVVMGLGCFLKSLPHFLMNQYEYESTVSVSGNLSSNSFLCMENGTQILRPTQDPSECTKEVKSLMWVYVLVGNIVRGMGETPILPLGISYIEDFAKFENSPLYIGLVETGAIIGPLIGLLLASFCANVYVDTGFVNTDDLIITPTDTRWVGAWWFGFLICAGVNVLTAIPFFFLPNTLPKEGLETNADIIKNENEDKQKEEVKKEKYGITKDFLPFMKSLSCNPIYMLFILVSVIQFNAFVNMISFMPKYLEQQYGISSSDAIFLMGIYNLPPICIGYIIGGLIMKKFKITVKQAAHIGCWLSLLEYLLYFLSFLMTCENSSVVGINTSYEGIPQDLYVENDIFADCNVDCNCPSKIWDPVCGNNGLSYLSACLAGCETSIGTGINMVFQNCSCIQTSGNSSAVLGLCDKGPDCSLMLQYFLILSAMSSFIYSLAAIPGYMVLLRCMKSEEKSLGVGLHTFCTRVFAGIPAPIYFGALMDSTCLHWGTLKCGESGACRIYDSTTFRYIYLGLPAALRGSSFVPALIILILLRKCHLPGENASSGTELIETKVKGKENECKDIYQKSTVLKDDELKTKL

OATP2B1 = molecular target: T4, OATP2B1 (Homo sapiens, UniProt O94956); parameters: method as in earlier report; details: same experimental model; ref earlier report; cited from earlier work
T4 construct: expressed in transfected cells; host or cells: A431
T4 sequence (O94956 1-709): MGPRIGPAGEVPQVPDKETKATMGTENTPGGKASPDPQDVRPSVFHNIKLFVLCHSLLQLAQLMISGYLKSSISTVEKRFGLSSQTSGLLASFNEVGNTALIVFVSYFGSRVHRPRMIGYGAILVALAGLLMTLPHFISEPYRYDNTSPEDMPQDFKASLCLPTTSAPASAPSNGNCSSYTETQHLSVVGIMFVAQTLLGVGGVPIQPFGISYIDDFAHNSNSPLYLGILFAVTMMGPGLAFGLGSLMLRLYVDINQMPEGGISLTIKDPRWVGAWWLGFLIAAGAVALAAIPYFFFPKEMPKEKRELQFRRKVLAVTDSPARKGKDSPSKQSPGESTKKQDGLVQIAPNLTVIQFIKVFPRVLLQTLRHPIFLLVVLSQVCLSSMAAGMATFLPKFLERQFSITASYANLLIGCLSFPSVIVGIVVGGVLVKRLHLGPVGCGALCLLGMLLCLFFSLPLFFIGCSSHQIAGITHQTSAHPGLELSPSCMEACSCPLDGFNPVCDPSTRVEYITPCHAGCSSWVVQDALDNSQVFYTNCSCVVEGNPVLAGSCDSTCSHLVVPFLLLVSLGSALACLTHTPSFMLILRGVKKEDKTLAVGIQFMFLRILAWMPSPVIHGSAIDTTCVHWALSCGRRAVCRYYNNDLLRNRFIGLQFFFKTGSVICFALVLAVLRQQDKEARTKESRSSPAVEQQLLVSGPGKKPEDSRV

CYP1A2 = molecular target: T5, CYP1A2 (Homo sapiens, UniProt P05177); parameters: purchased Abcam ab211075; method as in our previous study; details: ref our previous study; cited from earlier work
T5 sequence (P05177 1-516): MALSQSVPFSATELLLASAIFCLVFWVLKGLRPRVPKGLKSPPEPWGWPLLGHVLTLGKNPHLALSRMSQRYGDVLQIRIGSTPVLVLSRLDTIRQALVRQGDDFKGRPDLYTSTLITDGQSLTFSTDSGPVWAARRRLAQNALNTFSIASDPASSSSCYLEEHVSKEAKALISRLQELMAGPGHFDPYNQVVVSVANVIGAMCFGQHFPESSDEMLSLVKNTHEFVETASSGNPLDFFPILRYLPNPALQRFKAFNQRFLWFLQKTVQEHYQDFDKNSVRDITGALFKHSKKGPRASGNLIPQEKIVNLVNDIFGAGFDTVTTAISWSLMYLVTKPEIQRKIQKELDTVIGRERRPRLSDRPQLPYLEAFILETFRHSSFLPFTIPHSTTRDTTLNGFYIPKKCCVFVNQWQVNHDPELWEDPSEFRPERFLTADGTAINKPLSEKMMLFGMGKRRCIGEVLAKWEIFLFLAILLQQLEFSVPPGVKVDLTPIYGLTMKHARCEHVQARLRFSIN

For `C[C@H]1CCCC(=O)CCC/C=C/c2cc(O)cc(O)c2C(=O)O1` [ZEN, Zearalenone], the “effect on MDR1-driven NMQ transport” value (MDR1) is given as “inhibition only at 50 μM concentration”, the IC50 (CYP3A4) is given as 2000 nM and the IC50 (OATP1A2) is given as 2300 nM. For the same molecule, the IC50 (OATP2B1) was 2300 nM and the IC50 (CYP1A2) was 7800 nM.
